PubChem BioAssay AID2060508 (Molecular Pharmacology Branch, DTP, NCI, 2025)
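Note: spheroids exposed to compounds for seven days; 100% = DMSO vehicle control viability.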

The compounds below were run on 454973-116-R2-J3-PDC spheroids, viability, % test/control (assay: Anticancer human tumor 454973-116-R2-J3-PDC patient-derived pancreatic carcinoma cell line growth inhibition [GQUAD]). Details: second compound 10 µM; first compound 0.0316 µM; hits give low values; spheroids with HUVEC and MSC.
How it was run: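 Tumor cells were grown as complex spheroids with HUVEC endothelial cells and mesenchymal stem cells as stroma. G-quadruplex stabilizers were combined with targeted agents over half-log dilutions from near the clinical Cmax, or from 10 microM.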
`C#Cc1c(F)ccc2cc(O)cc(-c3ncc4c(N5CC6CCC(C5)N6)nc(OCC56CCCN5CC(F)C6)nc4c3F)c12` (configuration not stated) + Cc1cnc(CNC(=O)c2c(=O)c3ccc(N4CCCN(C)CC4)nc3n3c2sc2ccccc23)cn1 showed a viability, T/C of 0.16%.
`C=CCn1c(=O)c2cnc(Nc3ccc(N4CCN(C)CC4)cc3)nc2n1-c1cccc(C(C)(C)O)n1` + Cc1cnc(CNC(=O)c2c(=O)c3ccc(N4CCCN(C)CC4)nc3n3c2sc2ccccc23)cn1 was tested, and the viability, T/C was 0.34%.
Work on `CC(C)(O)C1CCC(Nc2ccc3ncc(-c4cccc(C(F)(F)F)c4)n3n2)CC1` (configuration not stated) + Cc1cnc(CNC(=O)c2c(=O)c3ccc(N4CCCN(C)CC4)nc3n3c2sc2ccccc23)cn1 yielded a viability, T/C of 0.3%.
Compound `Cc1[nH]c2ccccc2c1CCNCc1ccc(/C=C/C(=O)NO)cc1` + Cc1cnc(CNC(=O)c2c(=O)c3ccc(N4CCCN(C)CC4)nc3n3c2sc2ccccc23)cn1 has a viability, T/C of 31.6%.
With `O=C(NO)c1cnc(N2CCN(S(=O)(=O)c3ccc4ccccc4c3)CC2)nc1` + Cc1cnc(CNC(=O)c2c(=O)c3ccc(N4CCCN(C)CC4)nc3n3c2sc2ccccc23)cn1 the viability, T/C was 0.19%.

Same assay, conditions: second compound 10 µM; first compound 0.0999 µM; hits give low values; spheroids with HUVEC and MSC
Work on `Cc1[nH]c2ccccc2c1CCNCc1ccc(/C=C/C(=O)NO)cc1` + Cc1cnc(CNC(=O)c2c(=O)c3ccc(N4CCCN(C)CC4)nc3n3c2sc2ccccc23)cn1 yielded a viability, T/C of 0.77%.

Same assay, conditions: second compound 10 µM; first compound 0.1 µM; hits give low values; spheroids with HUVEC and MSC
`C#Cc1c(F)ccc2cc(O)cc(-c3ncc4c(N5CC6CCC(C5)N6)nc(OCC56CCCN5CC(F)C6)nc4c3F)c12` (configuration not stated) + Cc1cnc(CNC(=O)c2c(=O)c3ccc(N4CCCN(C)CC4)nc3n3c2sc2ccccc23)cn1 was tested, and the viability, T/C was 0.43%.
Work on `C=CCn1c(=O)c2cnc(Nc3ccc(N4CCN(C)CC4)cc3)nc2n1-c1cccc(C(C)(C)O)n1` + Cc1cnc(CNC(=O)c2c(=O)c3ccc(N4CCCN(C)CC4)nc3n3c2sc2ccccc23)cn1 yielded a viability, T/C of 20.9%.
`CC(C)(O)C1CCC(Nc2ccc3ncc(-c4cccc(C(F)(F)F)c4)n3n2)CC1` (configuration not stated) + Cc1cnc(CNC(=O)c2c(=O)c3ccc(N4CCCN(C)CC4)nc3n3c2sc2ccccc23)cn1 was tested, and the viability, T/C was 17.6%.
Compound `O=C(NO)c1cnc(N2CCN(S(=O)(=O)c3ccc4ccccc4c3)CC2)nc1` + Cc1cnc(CNC(=O)c2c(=O)c3ccc(N4CCCN(C)CC4)nc3n3c2sc2ccccc23)cn1 has a viability, T/C of 21.1%.

Same assay, conditions: second compound 10 µM; first compound 0.316 µM; hits give low values; spheroids with HUVEC and MSC
Compound `C#Cc1c(F)ccc2cc(O)cc(-c3ncc4c(N5CC6CCC(C5)N6)nc(OCC56CCCN5CC(F)C6)nc4c3F)c12` (configuration not stated) + Cc1cnc(CNC(=O)c2c(=O)c3ccc(N4CCCN(C)CC4)nc3n3c2sc2ccccc23)cn1 has a viability, T/C of 0.47%.
With `C=CCn1c(=O)c2cnc(Nc3ccc(N4CCN(C)CC4)cc3)nc2n1-c1cccc(C(C)(C)O)n1` + Cc1cnc(CNC(=O)c2c(=O)c3ccc(N4CCCN(C)CC4)nc3n3c2sc2ccccc23)cn1 the viability, T/C was 23.4%.
Compound `CC(C)(O)C1CCC(Nc2ccc3ncc(-c4cccc(C(F)(F)F)c4)n3n2)CC1` (configuration not stated) + Cc1cnc(CNC(=O)c2c(=O)c3ccc(N4CCCN(C)CC4)nc3n3c2sc2ccccc23)cn1 has a viability, T/C of 49%.
Work on `Cc1[nH]c2ccccc2c1CCNCc1ccc(/C=C/C(=O)NO)cc1` + Cc1cnc(CNC(=O)c2c(=O)c3ccc(N4CCCN(C)CC4)nc3n3c2sc2ccccc23)cn1 yielded a viability, T/C of 0.47%.
In the case of `O=C(NO)c1cnc(N2CCN(S(=O)(=O)c3ccc4ccccc4c3)CC2)nc1` + Cc1cnc(CNC(=O)c2c(=O)c3ccc(N4CCCN(C)CC4)nc3n3c2sc2ccccc23)cn1, the viability, T/C is reported as 0.26%.

Same assay, conditions: second compound 10 µM; first compound 1 µM; hits give low values; spheroids with HUVEC and MSC
`C#Cc1c(F)ccc2cc(O)cc(-c3ncc4c(N5CC6CCC(C5)N6)nc(OCC56CCCN5CC(F)C6)nc4c3F)c12` (configuration not stated) + Cc1cnc(CNC(=O)c2c(=O)c3ccc(N4CCCN(C)CC4)nc3n3c2sc2ccccc23)cn1 was tested, and the viability, T/C was 0.12%.
`C=CCn1c(=O)c2cnc(Nc3ccc(N4CCN(C)CC4)cc3)nc2n1-c1cccc(C(C)(C)O)n1` + Cc1cnc(CNC(=O)c2c(=O)c3ccc(N4CCCN(C)CC4)nc3n3c2sc2ccccc23)cn1 showed a viability, T/C of 0.26%.
`CC(C)(O)C1CCC(Nc2ccc3ncc(-c4cccc(C(F)(F)F)c4)n3n2)CC1` (configuration not stated) + Cc1cnc(CNC(=O)c2c(=O)c3ccc(N4CCCN(C)CC4)nc3n3c2sc2ccccc23)cn1 showed a viability, T/C of 0.58%.
`O=C(NO)c1cnc(N2CCN(S(=O)(=O)c3ccc4ccccc4c3)CC2)nc1` + Cc1cnc(CNC(=O)c2c(=O)c3ccc(N4CCCN(C)CC4)nc3n3c2sc2ccccc23)cn1 was tested, and the viability, T/C was 0.2%.

Same assay, conditions: second compound 10 µM; first compound 3.16 µM; hits give low values; spheroids with HUVEC and MSC
`C#Cc1c(F)ccc2cc(O)cc(-c3ncc4c(N5CC6CCC(C5)N6)nc(OCC56CCCN5CC(F)C6)nc4c3F)c12` (configuration not stated) + Cc1cnc(CNC(=O)c2c(=O)c3ccc(N4CCCN(C)CC4)nc3n3c2sc2ccccc23)cn1 gave a viability, T/C of 0.27%.
`C=CCn1c(=O)c2cnc(Nc3ccc(N4CCN(C)CC4)cc3)nc2n1-c1cccc(C(C)(C)O)n1` + Cc1cnc(CNC(=O)c2c(=O)c3ccc(N4CCCN(C)CC4)nc3n3c2sc2ccccc23)cn1 gave a viability, T/C of 0.3%.
With `CC(C)(O)C1CCC(Nc2ccc3ncc(-c4cccc(C(F)(F)F)c4)n3n2)CC1` (configuration not stated) + Cc1cnc(CNC(=O)c2c(=O)c3ccc(N4CCCN(C)CC4)nc3n3c2sc2ccccc23)cn1 the viability, T/C was 0.43%.
Compound `O=C(NO)c1cnc(N2CCN(S(=O)(=O)c3ccc4ccccc4c3)CC2)nc1` + Cc1cnc(CNC(=O)c2c(=O)c3ccc(N4CCCN(C)CC4)nc3n3c2sc2ccccc23)cn1 has a viability, T/C of 0.19%.

Same assay, conditions: second compound 10 µM; first compound 10 µM; hits give low values; spheroids with HUVEC and MSC
In the case of `C#Cc1c(F)ccc2cc(O)cc(-c3ncc4c(N5CC6CCC(C5)N6)nc(OCC56CCCN5CC(F)C6)nc4c3F)c12` (configuration not stated) + Cc1cnc(CNC(=O)c2c(=O)c3ccc(N4CCCN(C)CC4)nc3n3c2sc2ccccc23)cn1, the viability, T/C is reported as 0.18%.
`C=CCn1c(=O)c2cnc(Nc3ccc(N4CCN(C)CC4)cc3)nc2n1-c1cccc(C(C)(C)O)n1` + Cc1cnc(CNC(=O)c2c(=O)c3ccc(N4CCCN(C)CC4)nc3n3c2sc2ccccc23)cn1 gave a viability, T/C of 0.38%.
For `CC(C)(O)C1CCC(Nc2ccc3ncc(-c4cccc(C(F)(F)F)c4)n3n2)CC1` (configuration not stated) + Cc1cnc(CNC(=O)c2c(=O)c3ccc(N4CCCN(C)CC4)nc3n3c2sc2ccccc23)cn1, the viability, T/C was 0.23%.
With `O=C(NO)c1cnc(N2CCN(S(=O)(=O)c3ccc4ccccc4c3)CC2)nc1` + Cc1cnc(CNC(=O)c2c(=O)c3ccc(N4CCCN(C)CC4)nc3n3c2sc2ccccc23)cn1 the viability, T/C was 0.19%.
